Experimental data from patent US11851419B2, “GLP-1R modulating compounds” (Gilead Sciences, Inc., priority 2020, dated 2023).

Molecular target: T1, GLP-1R (Homo sapiens, UniProt P43220)
Test: GLP-1R Activation - cAMP Assay 2 (cAMP increase in CHO cells stably expressing GLP-1R, pre-spotted agonists)
Format: cell-based
Conditions: assay buffer or 100% Human Plasma (not given), 30 minutes at 37° C.
Method: GLP-1R Activation—cAMP Assay 2
GLP-1R activation by small molecule agonists is quantified by measuring cAMP increase in CHO cells stably expressing GLP-1R (MultiSpan product #C1267-1a). 50 nL of agonists are pre-spotted in a 10 point dose response onto 384-well plate (Corning product #CL3826) using the Labcyte Echo System. The cells are harvested and plated in assay buffer (HBSS (Corning product #21-023-CV) with 20 mM Hepes (Gibco product #15630-080) and 0.1% BSA (Rockland Immunochemicals product #BSA-1000)) or 100% Human Plasma (Innovative Research product #50-643-396) at 1,000 cells/well, 10 µL/well, onto the pre-spotted plates. The cells are then incubated for 30 minutes at 37° C., 5% CO2. cAMP concentration increase is then detected using Cisbio's cAMP Gs Dynamic Kit (product #62AM4PEC) according to the manufacturer's protocol. The response is plotted against the log of the agonist concentration and fitted to a sigmoidal equation to determine the EC50.

T1 sequence (P43220 24-463): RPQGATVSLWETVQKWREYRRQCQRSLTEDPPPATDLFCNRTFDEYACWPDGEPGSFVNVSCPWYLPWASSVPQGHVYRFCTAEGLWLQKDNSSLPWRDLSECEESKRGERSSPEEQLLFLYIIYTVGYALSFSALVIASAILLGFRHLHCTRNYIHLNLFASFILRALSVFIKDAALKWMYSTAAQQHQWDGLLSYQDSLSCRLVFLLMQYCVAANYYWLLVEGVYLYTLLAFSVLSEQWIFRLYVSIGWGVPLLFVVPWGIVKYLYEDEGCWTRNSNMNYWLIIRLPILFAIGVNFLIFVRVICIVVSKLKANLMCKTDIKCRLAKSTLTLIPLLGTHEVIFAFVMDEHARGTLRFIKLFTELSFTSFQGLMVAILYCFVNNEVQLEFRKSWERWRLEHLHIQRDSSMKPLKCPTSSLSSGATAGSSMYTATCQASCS

SMILES | EC50 [nM]
COCCn1c(C[C@H]2CC[C@@H](c3cccc(OCc4ccc(C#N)cc4F)n3)CC2)nc2c(-c3ccn(C)n3)cc(C(=O)O)cc21 [Example 31, 2-(((1s,4s)-4-(6-((4-cyano-2-fluorobenzyl)oxy)pyridin-2-yl)cyclohexyl)methyl)-1-(2-methoxyethyl)-4-(1-methyl-1H-pyrazol-3-yl)-1H-benzo[d]imidazole-6-carboxylic Acid] | 134
Cn1cc(-c2cc3nc(CN4CCC(c5cccc(OCc6ccc(C#N)cc6F)n5)CC4)n(C[C@@H]4CCO4)c3cc2C(=O)O)cn1 [Example 17, (S)-2-((4-(6-((4-cyano-2-fluorobenzyl)oxy)pyridin-2-yl)piperidin-1-yl)methyl)-5-(1-methyl-1H-pyrazol-4-yl)-1-(oxetan-2-ylmethyl)-1H-benzo[d]imidazole-6-carboxylic Acid] | 13.3
CC(C)(O)C#Cc1cc2nc(CN3CCC(c4cccc(OCc5ccc(C#N)cc5F)n4)CC3)n(C[C@@H]3CCO3)c2cc1C(=O)O [Example 16, (S)-2-((4-(6-((4-cyano-2-fluorobenzyl)oxy)pyridin-2-yl)piperidin-1-yl)methyl)-5-(3-hydroxy-3-methylbut-1-yn-1-yl)-1-(oxetan-2-ylmethyl)-1H-benzo[d]imidazole-6-carboxylic Acid] | 28.8
CC(C)(C)OC(=O)Nc1cc2nc(CN3CCC(c4cccc(OCc5ccc(C#N)cc5F)n4)CC3)n(C[C@@H]3CCO3)c2cc1C(=O)O [Example 24, 6-(tert-butoxycarbonylamino)-2-[[4-[6-[(4-cyano-2-fluoro-phenyl)methoxy]-2-pyridyl]-1-piperidyl]methyl]-3-[[(2S)-oxetan-2-yl]methyl]benzimidazole-5-carboxylic Acid] | 0.51
N#Cc1ccc(COc2cccc(C3CCN(Cc4nc5c(-c6ccccn6)cc(C(=O)O)cc5n4C[C@@H]4CCO4)CC3)n2)c(F)c1 [Example 5, Methyl 2-[[4-[6-[(4-cyano-2-fluoro-phenyl)methoxy]-2-pyridyl]-1-piperidyl]methyl]-3-[[(2S)-oxetan-2-yl]methyl]-7-(2-pyridyl)benzimidazole-5-carboxylic Acid] | 9.8
COCCn1c(C[C@H]2CC[C@H](c3cccc(OCc4ccc(C#N)cc4F)n3)CC2)nc2c(-c3ccn(C)n3)cc(C(=O)O)cc21 [Example 32, 2-(((1r,4r)-4-(6-((4-cyano-2-fluorobenzyl)oxy)pyridin-2-yl)cyclohexyl)methyl)-1-(2-methoxyethyl)-4-(1-methyl-1H-pyrazol-3-yl)-1H-benzo[d]imidazole-6-carboxylic Acid] | 10.6
COCCn1c(CN2CCC(c3cccc(OCc4ccc(C#N)cc4F)n3)CC2)nc2c(F)c(Nc3ccccc3)c(C(=O)O)cc21 [Example 1, 2-((4-(6-((4-cyano-2-fluorobenzyl)oxy)pyridin-2-yl)piperidin-1-yl)methyl)-4-fluoro-1-(2-methoxyethyl)-5-(phenylamino)-1H-benzo[d]imidazole-6-carboxylic acid] | 15.1
Cn1ccc(-c2cc3nc(CN4CCC(c5cccc(OCc6ccc(C#N)cc6F)n5)CC4)n(C[C@@H]4CCO4)c3cc2C(=O)O)n1 [Example 30, 2-[[4-[6-[(4-cyano-2-fluoro-phenyl)methoxy]-2-pyridyl]-1-piperidyl]methyl]-6-(1-methylpyrazol-3-yl)-3-[[(2S)-oxetan-2-yl]methyl]benzimidazole-5-carboxylic Acid] | 52.2
CC(C)(O)C#Cc1cc(C(=O)O)cc2c1nc(CN1CCN(c3cccc(OCc4ccc(C(N)=O)cc4F)n3)CC1)n2C[C@@H]1CCO1 [Example 13, 2-[[4-[6-[(4-carbamoyl-2-fluoro-phenyl)methoxy]-2-pyridyl]piperazin-1-yl]methyl]-7-(3-hydroxy-3-methyl-but-1-ynyl)-3-[[(2S)-oxetan-2-yl]methyl]benzimidazole-5-carboxylic Acid] | 31.9
COCCn1c(CN2CCC(c3cccc(OCc4ccc(C(N)=O)cc4F)n3)CC2)nc2c(F)c(Nc3ccccc3)c(C(=O)O)cc21 [Example 2, 2-((4-(6-((4-carbamoyl-2-fluorobenzyl)oxy)pyridin-2-yl)piperidin-1-yl)methyl)-4-fluoro-1-(2-methoxyethyl)-5-(phenylamino)-1H-benzo[d]imidazole-6-carboxylic Acid] | 175

Second part, the compound after the results:

EC50 [nM] | SMILES
1.2 | Cn1ccc(-c2cc(C(=O)O)cc3c2nc(CN2CCC(c4ccnc(OCc5ccc(C#N)cc5F)n4)CC2)n3C[C@@H]2CCO2)n1 [Example 4, (S)-2-((4-(2-((4-cyano-2-fluorobenzyl)oxy)pyrimidin-4-yl)piperidin-1-yl)methyl)-4-(1-methyl-1H-pyrazol-3-yl)-1-(oxetan-2-ylmethyl)-1H-benzo[d]imidazole-6-carboxylic Acid]
2.6 | N#Cc1ccc(COc2cccc(N3CCN(Cc4nc5c(-c6ccccn6)cc(C(=O)O)cc5n4C[C@@H]4CCO4)CC3)n2)c(F)c1 [Example 6]
0.031 | N#Cc1ccc(COc2cccc(N3CCN(Cc4nc5c(F)cc(C(=O)O)cc5n4C[C@@H]4CCO4)CC3)n2)c(F)c1 [Example 23]
0.3 | Cn1ccc(-c2cc(C(=O)O)cc3c2nc(CN2CCN(c4cccc(OCc5ccc(C#N)cc5F)n4)CC2)n3C[C@@H]2CCO2)n1 [Example 19, 2-[[4-[6-[(4-cyano-2-fluoro-phenyl)methoxy]-2-pyridyl]piperazin-1-yl]methyl]-7-(1-methylpyrazol-3-yl)-3-[[(2S)-oxetan-2-yl]methyl]benzimidazole-5-carboxylic Acid]
1.9 | COCCn1c(CN2CCN(c3cccc(OCc4ccc(C#N)cc4F)n3)CC2)nc2c(F)c(Nc3ccccc3)c(C(=O)O)cc21 [Example 3, 2-((4-(6-((4-cyano-2-fluorobenzyl)oxy)pyridin-2-yl)piperazin-1-yl)methyl)-4-fluoro-1-(2-methoxyethyl)-5-(phenylamino)-1H-benzo[d]imidazole-6-carboxylic acid]
0.22 | N#Cc1ccc(COc2nc(N3CCN(Cc4nc5c(F)cc(C(=O)O)cc5n4C[C@@H]4CCO4)CC3)ccc2F)c(F)c1 [Example 22, 2-[[4-[6-[(4-cyano-2-fluoro-phenyl)methoxy]-5-fluoro-2-pyridyl]piperazin-1-yl]methyl]-7-fluoro-3-[[(2S)-oxetan-2-yl]methyl]benzimidazole-5-carboxylic Acid]
0.81 | CC(C)(O)C#Cc1cc(C(=O)O)cc2c1nc(CN1CCC(c3cccc(OCc4ccc(C#N)cc4F)n3)CC1)n2C[C@@H]1CCO1 [Example 12]
0.98 | Cn1ccc(-c2cc(C(=O)O)cc3c2nc(CN2CCC(c4cccc(OCc5ccc(C#N)cc5F)n4)CC2)n3C[C@@H]2CCO2)n1 [Example 18, 2-[[4-[6-[(4-cyano-2-fluoro-phenyl)methoxy]-2-pyridyl]-1-piperidyl]methyl]-7-(1-methylpyrazol-3-yl)-3-[[(2S)-oxetan-2-yl]methyl]benzimidazole-5-carboxylic Acid]
0.038 | N#Cc1ccc(COc2cccc(C3CCN(Cc4nc5c(F)cc(C(=O)O)cc5n4C[C@@H]4CCO4)CC3)n2)c(F)c1 [Example 21]
1.7 | CC(C)(O)C#Cc1cc(C(=O)O)cc2c1nc(CN1CCN(c3cccc(OCc4ccc(C#N)cc4F)n3)CC1)n2C[C@@H]1CCO1 [Example 11, 2-[[4-[6-[(4-cyano-2-fluoro-phenyl)methoxy]-2-pyridyl]piperazin-1-yl]methyl]-7-(3-hydroxy-3-methyl-but-1-ynyl)-3-[[(2S)-oxetan-2-yl]methyl]benzimidazole-5-carboxylic Acid]
0.07 | N#Cc1ccc(COc2nc(C3CCN(Cc4nc5c(F)cc(C(=O)O)cc5n4C[C@@H]4CCO4)CC3)ccc2F)c(F)c1 [Example 20, 2-[[4-[6-[(4-cyano-2-fluoro-phenyl)methoxy]-5-fluoro-2-pyridyl]-1-piperidyl]methyl]-7-fluoro-3-[[(2S)-oxetan-2-yl]methyl]benzimidazole-5-carboxylic Acid]

Molecular target: T1, GLP-1R
Test: GLP-1R Activation - cAMP Assay 1 (cAMP increase in CHO cells stably expressing GLP-1R)
Format: cell-based
Conditions: 10 point dose response, 30 minutes incubation at 37° C., cAMP Gs Dynamic Kit
Method: GLP-1R Activation—cAMP Assay 1
GLP-1R activation by a compound of the present disclosure was quantified by measuring cAMP increase in CHO cells stably expressing GLP-1R (MultiSpan product #C1267-1a). The cells were harvested and plated in growth medium (DMEM/F-12 (Corning product #10-090-CV) supplemented with 10% FBS (HyClone product #SH30071-03), penicillin/streptomycin (Corning product #30-002CI) and 10 µg/ml puromycin (Gibco product #A11138-03)) at 1,000 cells/well in a 384-well plate (Greiner product #781080). The cells were then incubated overnight at 37° C., 5% CO2. The next day, the medium was removed and the cells were washed with DPBS (Corning product #21-031-CM) before adding the assay medium (HBSS, Corning product #21-023-CV) with 20 mM Hepes (Gibco product #15630-080) and 0. 1% BSA (Rockland Immunochemicals product #BSA-1000)). Following the medium change, the cells were incubated for 1 hour at 37° C., 5% CO2. The tested GLP-1 compound was added to the cells in a 10 point dose response followed by a 30 minutes incubation at 37° C., 5% CO2. cAMP concentration increase was then detected using Cisbio's cAMP Gs Dynamic Kit (product #62AM4PEC) according to the manufacturer's protocol. The response was plotted against the log of the agonist concentration and fitted to a sigmoidal equation to determine the EC50.

EC50 [nM] | SMILES
104 | COCCn1c(CN2CCC(c3cccc(OCc4ccc(C#N)cc4F)n3)CC2)nc2c(-c3cnn(C)c3)cc(C(=O)O)cc21 [Example 29, 2-((4-(6-((4-cyano-2-fluorobenzyl)oxy)pyridin-2-yl)piperidin-1-yl)methyl)-1-(2-methoxyethyl)-4-(1-methyl-1H-pyrazol-4-yl)-1H-benzo[d]imidazole-6-carboxylic Acid]
